row,Structure (SMILES),melting point
1,Cc1ccc(C)n1CCNC(=O)CN1CCCC1=O,109 to 111 °C
2,Cc1c2n(c(=O)[nH]c1=O)CCCS2,196 to 198 °C
3,CCCOc1ccc(NC2=C(C(=O)OCC)CCC2)cc1C1=NC(=O)C2=NN=NC2=N1,164 to 165 °C
4,COc1ccc(Nc2nc(Cl)c3sccc3n2)c(C)c1,151 to 153 °C
5,CC(C)(O)Cn1c(CO)nc2c(N)nc3cc(OCc4ccccc4)ccc3c21,284 to 286 °C
6,CC(Br)c1ccc2occ(C#N)c(=O)c2c1 (centres undefined),162 to 164 °C
7,CCNC(C)CCC1(C(N)=O)c2ccccc2-c2ccccc21 (centres undefined),180 to 182 °C
8,O=C(Nc1cc(Cl)ccc1S(=O)(=O)c1ccccc1)N[C@@H](Cc1ccc(NC(=O)c2c(Cl)cncc2Cl)cc1)C(=O)O,204 °C
9,O=C(O)CCC/C=C/c1ccc2ccccc2n1,142 to 144 °C
10,O=C(OCN1C(=O)C2CCCN2S1(=O)=O)c1c(Cl)cccc1Cl (centres undefined),92 to 93.5 °C
11,COc1cc(-c2ccc(O)c(C34CC5CC(CC(C5)C3)C4)c2)cc(C=C2SC(N3CCOCC3)=NC2=O)c1O,310 to 312 °C
12,COc1ccc(-c2sc3ccccc3c2C(=O)c2ccc(O)cc2)cc1,188 to 189 °C
13,COC(=O)c1cscc1NC(=O)C(F)Cl (centres undefined),51 to 54 °C
14,CCCn1c(=O)c2c(nc(C=Cc3cc(OC)c(OC)cc3S(=O)(=O)N3CCCCC3)n2C)n(CCC)c1=O,266 to 268 °C
15,CSCCc1nc(N2CCc3ccccc3CC2)c(C#N)c(=O)n1CCO,93 to 99 °C
16,Fc1ccc(-c2ncncc2CCN2CCC(c3csc4cc(F)ccc34)CC2)cc1,123 to 124 °C
17,Cc1ccc(OC(C)C(=O)c2cc(C(C)(C)C)c(O)c(C(C)(C)C)c2)c(-n2nc3ccccc3n2)c1 (centres undefined),161 °C
18,Cc1cc(C)c2cc(-c3ccccc3)c(N)nc2n1,191 to 195 °C
19,CC(/C=C/C(=O)OC(C)(C)C)=C\c1ccc([N+](=O)[O-])cc1,120 to 122 °C
20,Cc1cc(C(=O)NCO)ncc1C(c1c(F)ccc(F)c1F)S(=O)(=O)c1ccc(Cl)cc1 (centres undefined),177 to 178 °C
21,COC(=O)C1=C(C)NC(C)=C(C(=O)OCC2CCCO2)C1c1ccc(Cl)c([N+](=O)[O-])c1 (centres undefined),148 to 150 °C
22,COc1cc(NC(=O)NC2CC(O)CC2N2CCC(Cc3ccc(Cl)cc3)CC2)cc(OC)c1OC (centres undefined),81 to 84 °C
23,O=C1NC(=O)C(c2cn3c4c(cccc24)CCC3)=C1c1ccc(F)cc1,234 to 235 °C
24,CC(C)CC1CNCCNCCNCCNCCN1 (centres undefined),70 to 76 °C
25,Cc1c(-c2ccccc2)nc(C(C)C)c(CO)c1-c1ccc(F)cc1,182 to 184 °C

row,Structure (SMILES),melting point
1,COc1ccccc1CN[C@H]1CCCN(CCCCCc2ccccc2)[C@H]1c1ccccc1 (relative stereo),109 °C
2,CC(C)N(CCCCS(=O)(=O)CC(=O)O)c1cnc(-c2ccccc2)c(-c2ccccc2)n1,183 to 185 °C
3,CCOCCCOc1ccc2c(c1)C(N(CC)S(C)(=O)=O)CC(C)(C)O2 (centres undefined),72 to 74 °C
4,COC(=O)c1ccc(SC)c(C(F)(F)F)c1,76 to 77 °C
5,Cc1c(C(=O)Nc2ccc(N3CCC(NCCO)CC3)c(C#N)c2)cnn1-c1ccc(Cl)cc1,181 °C
6,CCOC(=O)Nc1cc2c3ccccc3n(CC)c2cn1,217 to 218 °C
7,CN1CCN(CCCNc2ncc3c(n2)-c2ccccc2C(c2ccc(N)cc2)C3)CC1 (centres undefined),75 to 77 °C
8,CC(C)(C)c1ccc(S(=O)(=O)N2c3ccccc3C[C@H]2C(=O)NCc2ccc(OCCC(=O)O)cc2)cc1,75 °C
9,CC(=O)c1ccc(OCCCCCCCc2cc(C)no2)cc1,69 to 71 °C
10,CCN(CC)C(=O)c1c(C(=O)OC)ccc(F)c1[Si](C)(C)C,46 °C
11,CN1CCN(c2ccc(Nc3ncc4c(n3)SC(=Cc3ccc(OCc5ccccc5)cc3)C(=O)N4)cc2)CC1,238 to 240 °C
12,COc1ccc2c(c1)OCC(c1ccc(C(F)(F)F)cc1)C2c1ccc(OCCN2CCCC2)cc1 (centres undefined),119 to 120 °C
13,CC(C)N(CCOc1ccc(CC2SC(=O)NC2=O)cc1)c1nc2ccccc2o1 (centres undefined),66 °C
14,N#Cc1nn(-c2c(Cl)cc(C(F)(F)F)cc2Cl)c(N)c1-c1ccoc1C(F)(F)F,155 to 157 °C
15,CN(C=O)c1ccc(Cl)cc1C(=O)c1ccccc1,93.5 to 94.5 °C
16,COc1ccc(Cc2n[nH]c3c2c(=O)n(-c2ccccc2)c2ncccc32)cc1,300 to 302 °C
17,CC(C)S(=O)(=O)c1ccccc1S(N)(=O)=O,150 to 153 °C
18,CCOC(=O)c1cc2c(OCC(O)CNC(C)C)cc(C)cc2[nH]1 (centres undefined),163 to 165 °C
19,COC(C)OC(=O)C1CC(=O)N(c2ccc(C(C)(C)C)cc2)C1 (centres undefined),60 to 61 °C
20,CCC(C)(C)c1cc(-c2ccc(CC3SC(N4CCOCC4)=NC3=O)s2)ccc1O (centres undefined),200 to 202 °C
21,COc1ccc(N2Cc3cnc(Nc4ccc(F)cc4)nc3N([C@@H](C)CO)C2=O)c(F)c1,173 to 177 °C
22,CC(=O)NC(C)(C)c1ccc(C(C)N2CCN(c3ccc(F)cc3)CC2)cc1 (centres undefined),156 to 157 °C
23,CCn1nc(-c2ccccc2)c(C(C)=O)c(Nc2cccc3ccc(C)nc23)c1=O,172 to 173 °C
24,CCOC(=O)c1ncn2c1c(=O)[nH]c1cc(S(C)(=O)=O)ccc12,> 300 °C

# — a melting point compilation (Tetko et al.; mined from patent text by program, amines drawn as free bases though some values may be those of a salt)
